PubChem BioAssay AID179 (DTP/NCI, 2004)
The source made the active and inactive calls.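 Rule for the calls: active = compounds giving half or more protection of infected cells from virus-caused growth loss, again on retest; inactive = the rest.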 Where a SMILES comes first, the peptide text is derived from it.

System: CEM cells HIV-1 protection, formazan growth assay
Experiment: NCI AIDS Antiviral Assay
Conditions: for IC50: measured here: growth of uninfected CEM cells
Outline: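 Soluble formazan readout of cell growth; CEM cells ± HIV-1; 5 drug concs. ≥50% protection → retest; ≥50% again = moderately active; reproducible 100% = confirmed active.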

SMILES	EC50 [µM]	IC50 [µM]	outcome
CN(C)CCOc1ccc(-c2c(Oc3ccccc3)c(=O)oc3ccccc23)cc1	> 200	8.71	
O=C1/C(=C/c2ccc(O)cc2)Oc2ccccc21	> 200	151	
NNc1nnc(CCCCCCCCc2nnc(NN)n2N)n1N	> 200	37.2	
Nc1nc(N)c2ncn(CCOC(c3ccccc3)P(=O)(O)O)c2n1 (stereo not given)	> 200	> 200	
Cc1cc2c(C)c(-c3ccccc3)c(=O)oc2c(C#N)c1C	> 200	170	
CCOC(=O)c1nc2ccc(C(F)(F)F)cc2nc1Nc1cc(OC)c(OC)c(OC)c1	> 200	> 200	
CC1=NN(c2ccccc2)[As]2ON=C(c3ccc(Cl)cc3)C12 (stereo not given)			inactive
COC[C@H](C)N=CN1CCc2ccccc2C1	> 1070	> 1070	
NC(CSS(=O)(=O)O)=NCCc1c[nH]c(=S)[nH]1	> 200	34.7	
O=C(Nc1ccccc1)c1cc(S(=O)(=O)n2cc[nH]c2=O)c(S)cc1Cl	> 200	> 200	
Cc1ccc(S(=O)(=O)N(/N=C/C=C/c2ccccc2)c2nnc(-c3ccccc3)c(-c3ccccc3)n2)cc1	> 18.6	10	
Cc1cc(NC(=O)C(=O)Cc2cnc3ccccc3n2)c(S(=O)(=O)O)cc1Cl	> 589	> 589	
CN=C1CN=C(OP(=O)(N2CCOCC2)N2CCOCC2)c2cc(Cl)ccc2N1	> 6.17	> 6.17	
O=[N+]([O-])c1cccc([N+](=O)[O-])c1S(=O)(=O)c1ccccc1	> 61.7	6.31	
Cc1nc2ccc(S(=O)(=O)Nc3ccccn3)cc2c(=O)n1NS(=O)(=O)c1ccccn1	> 200	> 200	
O=C1OCC(Cc2ccc3c(c2)OCO3)[C@H]1Cc1cccc(O)c1 (stereo not given in full)	> 200	79.4	
O=C(O)c1c2c(c(C(=O)O)c3ccccc13)-c1ccccc1-2			inactive
CN(C)c1nc(=Nc2ccc3c(c2)OCO3)ss1			inactive
C/C(=N\NC(=O)CCSCCC(=O)N/N=C(\C)c1ccc(OS(C)(=O)=O)cc1)c1ccc(OS(C)(=O)=O)cc1	> 200	> 200	
CCOC(=O)C1(C/C=C\CBr)CCCC1=O (stereo not given)	> 200	33.9	
CCN(CC)CCC1CCCCN1CC(=O)N1c2ccccc2NC(=O)c2ccccc21 (stereo not given)	> 200	> 200	
NCCC1([N+](=O)[O-])CCNCC1	> 200	> 200	
c1ccc(SC(CCCCC(Sc2ccccc2)Sc2ccccc2)Sc2ccccc2)cc1			inactive

SMILES	EC50 [µM]	IC50 [µM]	outcome
CN1CCN(C(=O)CCNC(=O)Cc2ccc(C(=O)c3ccccc3)cc2)CC1	> 200	64.6	
O=C(NC(=S)Nc1ccc(Cl)c(Cl)c1)c1cccc([N+](=O)[O-])c1	> 200	17	
COC(=O)c1sc(C(=O)OC)c2c1CSC2			inactive
Cc1ccccc1NC(=O)CC(=O)NNCC(=O)Nc1nnc(-c2ccccc2)s1	> 61.7	46.8	
C[C@@H]1CC[C@@]2(OC1)O[C@H]1C[C@H]3[C@@H]4CC[C@H]5C[C@@H](OC6OC(CO)C(OC7OC(CO)C(O)C(OC8OCC(O)C(O)C8O)C7OC7OC(CO)C(O)C(O)C7O)C(O)C6O)CC[C@]5(C)[C@H]4CC[C@]3(C)[C@H]1[C@@H]2C (stereo not given in full)	> 100	6.17	
CN(CC#N)C1CCC[C@]1(O)C#C[Si](C)(C)c1ccccc1 (stereo not given in full)	> 60.3	57.5	
COc1cc(Nc2nc(NS(=O)(=O)c3cc(C)c(Cl)cc3S)n[nH]2)cc(OC)c1OC	112	794	
COc1ccc2c(c1)OCC(O)(c1ccccc1)C2=O (stereo not given)	> 200	155	
O=C(N/N=C/c1ccccc1O)c1ccccc1O	> 20	2.34	
O=C(Nc1cc(Cl)c(Cl)cc1Cl)C(=O)C1C(=O)NC(=S)NC1=O			inactive
C/C=C/COC(=O)CO[N+](=O)[O-]			inactive
COc1c(Cl)cc(C(=CCCCC(=O)N(C)OC)c2cc(Cl)c(OC)c(C(=O)N(C)OC)c2)cc1C(=O)N(C)OC	> 200	30.9	
CC(=O)c1ccc(NC(=O)C(=O)CC(=O)c2sc(-n3nc(-c4ccccc4)cc3-c3ccccc3)nc2C)cc1	> 155	> 155	
CC1NC(=O)CNC(=O)CNC(=O)C(Cc2ccc(O)cc2)NC(=O)C(C(C)C)NC(=O)C(C)NC1=O (stereo not given) (cyclo(GGAAVY); configuration not given here)			inactive
CCCCCCCCCCCCOC(=N)N(C)C	> 200	2	
C/C(=N\O)c1sc(-n2nc(-c3ccccc3)cc2-c2ccccc2)nc1C	> 95.5	44.7	
CCN(CC)CCSc1c2ccccc2nc2c(OC)ccc(OC)c12			inactive
COC(=O)C1C2CCCN2OC1(C)CO (stereo not given)	> 200	> 200	
COC(=O)C1CCC(=O)N1C(c1cc(OC)c(OC)c(OC)c1)c1cc(OC)c(OC)c(OC)c1 (stereo not given)	> 200	55	
CCCCn1/c(=N/C(=S)N(C)C)ss/c1=N\C(=S)N(C)C			inactive
Cc1ccc2cc1NC(=O)N1CCN(CC1)C(=O)Nc1cc(ccc1C)NC(=O)N1CCN(CC1)C(=O)N2	> 3.8	> 3.8	
O=S(=O)(SCCO)c1ccccc1	> 813	57.5	
